# From PubChem BioAssay AID330 (DTP/NCI, 2004)
# Values joined by “and” are separate entries in the source; they are usually repeats but may differ in a detail not shown here. Identical values can stand only once. Inconclusive results and toxic doses are left out.
# Test system: P388 leukemia ip, CD2F1 mice, survival T/C
# Assay: NCI In Vivo Anticancer Drug Screen. Data for tumor model P388 Leukemia (intraperitoneal) in CD2F1 (CDF1) mice
# Conditions: endpoint: median survival time, higher = longer survival
# Summary of the method: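 Mice carrying the transplanted tumor received test compound or vehicle. Survival was recorded in each group, and the value is the treated-group measurement divided by that of the vehicle-treated control group.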
# [1] = dose: 25.0 mg/kg/injection, schedule: Q01DX005 (ip), vehicle: saline
# [2] = dose: 50.0 mg/kg/injection, schedule: Q01DX005 (ip), vehicle: saline
# [3] = dose: 50.0 mg/kg/injection, schedule: Q01DX009 (ip), vehicle: saline with Tween-80
# [4] = dose: 50.0 mg/kg/injection, schedule: Q01DX005 (ip), vehicle: saline with Tween-80
# [5] = dose: 100.0 mg/kg/injection, schedule: Q01DX005 (ip), vehicle: saline with Tween-80
# [6] = dose: 200.0 mg/kg/injection, schedule: Q01DX005 (ip), vehicle: saline with Tween-80
# [7] = dose: 60.0 mg/kg/injection, schedule: Q01DX005 (ip), vehicle: saline with Tween-80
# [8] = dose: 120.0 mg/kg/injection, schedule: Q01DX005 (ip), vehicle: saline with Tween-80
# [9] = dose: 240.0 mg/kg/injection, schedule: Q01DX005 (ip), vehicle: saline with Tween-80
smiles,measurement,setting,value
O=C(CBr)Nc1ncc([N+](=O)[O-])s1,T/C,"dose: 6.25 mg/kg/injection, schedule: Q01DX009 (ip), vehicle: Klucel (hydroxypropylcellulose) (HPC)",102 % of control
same,T/C,"dose: 12.5 mg/kg/injection, schedule: Q01DX009 (ip), vehicle: Klucel (hydroxypropylcellulose) (HPC)",104 % of control
CCOC(=O)CC1(O)CSc2nc(N)cc(=O)n21 (stereo unspecified),T/C,"dose: 50.0 mg/kg/injection, schedule: Q01DX005 (ip), vehicle: Klucel (hydroxypropylcellulose) (HPC)",94 % of control
same,T/C,"dose: 100.0 mg/kg/injection, schedule: Q01DX005 (ip), vehicle: Klucel (hydroxypropylcellulose) (HPC)",99 % of control
same,T/C,"dose: 200.0 mg/kg/injection, schedule: Q01DX005 (ip), vehicle: Klucel (hydroxypropylcellulose) (HPC)",91 % of control
COC(=O)C1=CO[C@@H](OC2OC(CO)C(O)C(O)C2O)[C@@H]2[C@H](C)[C@@H](O)[C@@H](O)[C@]12O (stereo partly specified),T/C,[1],115 % of control
same,T/C,[2],100 % of control
same,T/C,"dose: 100.0 mg/kg/injection, schedule: Q01DX005 (ip), vehicle: saline",106 % of control
same,T/C,"dose: 200.0 mg/kg/injection, schedule: Q01DX005 (ip), vehicle: saline",106 % of control
OCCN=Cc1ccccc1,T/C,"dose: 25.0 mg/kg/injection, schedule: Q01DX009 (ip), vehicle: saline sonified",90 % of control
same,T/C,"dose: 50.0 mg/kg/injection, schedule: Q01DX009 (ip), vehicle: saline sonified",104 % of control
same,T/C,"dose: 100.0 mg/kg/injection, schedule: Q01DX009 (ip), vehicle: saline sonified",104 % of control
O=C(Nc1ccc(C2=NCCCN2)cc1)Nc1cccc(C(=O)Nc2ccc(C3=NCCCN3)cc2)c1,T/C,"dose: 1.5 mg/kg/injection, schedule: Q01DX009 (ip), vehicle: saline with Tween-80",100 % of control
same,T/C,"dose: 3.0 mg/kg/injection, schedule: Q01DX009 (ip), vehicle: saline with Tween-80",109 % of control
same,T/C,"dose: 12.5 mg/kg/injection, schedule: Q04DX003 (ip), vehicle: saline with Tween-80",104 % of control
same,T/C,"dose: 16.5 mg/kg/injection, schedule: Q01DX009 (ip), vehicle: saline with Tween-80",163 % of control
same,T/C,"dose: 25.0 mg/kg/injection, schedule: Q04DX003 (ip), vehicle: saline with Tween-80",118 % of control
same,T/C,[3],90 % of control
same,T/C,"dose: 50.0 mg/kg/injection, schedule: Q04DX003 (ip), vehicle: saline with Tween-80",118 % of control
CCCCCCCCCCCCC[N+]1(CC)CCCCC1,T/C,"dose: 0.78 mg/kg/injection, schedule: Q01DX009 (ip), vehicle: saline",105 % of control
same,T/C,"dose: 1.56 mg/kg/injection, schedule: Q01DX009 (ip), vehicle: saline",118 % of control
same,T/C,"dose: 3.12 mg/kg/injection, schedule: Q01DX009 (ip), vehicle: saline",110 % of control
N=C(N)SCN1C(=O)c2ccccc2C1=O,T/C,"dose: 6.25 mg/kg/injection, schedule: Q01DX009 (ip), vehicle: saline with Tween-80",114 % of control
same,T/C,"dose: 12.5 mg/kg/injection, schedule: Q01DX009 (ip), vehicle: saline with Tween-80",107 % of control
same,T/C,"dose: 25.0 mg/kg/injection, schedule: Q01DX009 (ip), vehicle: saline with Tween-80",123 % of control
same,T/C,[3],122 % of control
CCn1ncc2c1nc(-c1ccccc1)c[n+]2[O-],T/C,"dose: 60.0 mg/kg/injection, schedule: Q01DX005 (ip), vehicle: Klucel (hydroxypropylcellulose) (HPC)",92 % of control
same,T/C,"dose: 120.0 mg/kg/injection, schedule: Q01DX005 (ip), vehicle: Klucel (hydroxypropylcellulose) (HPC)",100 % of control
same,T/C,"dose: 240.0 mg/kg/injection, schedule: Q01DX005 (ip), vehicle: Klucel (hydroxypropylcellulose) (HPC)",101 % of control
CC(=O)OC1(c2nccc3ccccc23)CCN(Cc2ccccc2)CC1,T/C,"dose: 50.0 mg/kg/injection, schedule: Q01DX009 (ip), vehicle: Klucel (hydroxypropylcellulose) (HPC)",106 % of control
same,T/C,"dose: 100.0 mg/kg/injection, schedule: Q01DX009 (ip), vehicle: Klucel (hydroxypropylcellulose) (HPC)",106 % of control
same,T/C,"dose: 200.0 mg/kg/injection, schedule: Q01DX009 (ip), vehicle: Klucel (hydroxypropylcellulose) (HPC)",102 % of control
COC(=O)C1CC(NO)CN1S(=O)(=O)c1ccc(C)cc1 (stereo unspecified),T/C,"dose: 100.0 mg/kg/injection, schedule: Q04DX002 (ip), vehicle: saline with Tween-80",99 % of control
same,T/C,"dose: 200.0 mg/kg/injection, schedule: Q04DX002 (ip), vehicle: saline with Tween-80",95 % of control
same,T/C,"dose: 400.0 mg/kg/injection, schedule: Q04DX002 (ip), vehicle: saline with Tween-80",93 % of control
CCCCC(C)(CCN)CCCC,T/C,"dose: 25.0 mg/kg/injection, schedule: Q01DX009 (ip), vehicle: suspension in saline",103 % of control
same,T/C,"dose: 50.0 mg/kg/injection, schedule: Q01DX009 (ip), vehicle: suspension in saline",105 % of control
same,T/C,"dose: 100.0 mg/kg/injection, schedule: Q01DX009 (ip), vehicle: suspension in saline",106 % of control
C=CCSCC1Nc2cc(Cl)c(S(N)(=O)=O)cc2S(=O)(=O)N1C (stereo unspecified),T/C,[4],100 % of control
same,T/C,[5],105 % of control
same,T/C,[6],101 % of control
COc1cc2c(oc(=O)c3cc(C)cc(OC)c32)c2c(C3OC(C)C(O)C(C)(O)C3O)ccc(O)c12 (stereo unspecified),T/C,"dose: 1.56 mg/kg/injection, schedule: Q01DX005 (ip), vehicle: DMSO",101 % of control
same,T/C,"dose: 3.12 mg/kg/injection, schedule: Q01DX005 (ip), vehicle: DMSO",105 % of control and 109 % of control
same,T/C,"dose: 6.25 mg/kg/injection, schedule: Q01DX005 (ip), vehicle: DMSO",114 % of control
same,T/C,"dose: 12.5 mg/kg/injection, schedule: Q01DX005 (ip), vehicle: DMSO",123 % of control
N#Cc1ccc(NN=O)nc1,T/C,"dose: 3.13 mg/kg/injection, schedule: Q01DX009 (ip), vehicle: water",116 % of control and 123 % of control
same,T/C,"dose: 6.25 mg/kg/injection, schedule: Q01DX009 (ip), vehicle: water",159 % of control
same,T/C,"dose: 12.5 mg/kg/injection, schedule: Q01DX009 (ip), vehicle: water",151 % of control and 169 % of control
same,T/C,"dose: 25.0 mg/kg/injection, schedule: Q01DX009 (ip), vehicle: water",194 % of control and 268 % of control
CC12C(=O)NC(c3ccncc3)(c3ccccc31)C1C(=O)N(c3ccccc3)C(=O)C12 (stereo unspecified),T/C,[7],96 % of control
same,T/C,[8],94 % of control
same,T/C,[9],94 % of control
NCCCCC(C(=O)O)N(C(=O)OCc1ccccc1)C(=O)OCc1ccccc1 (stereo unspecified),T/C,[4],106 % of control
same,T/C,[5],101 % of control
same,T/C,[6],97 % of control
C/C=C1\CN2CCc3c([nH]c4ccccc34)C2CC1C1=CN2c3ccccc3C34CCN5CC6=CCOC1C(C6CC53)C24 (stereo unspecified),T/C,"dose: 2.38 mg/kg/injection, schedule: Q01DX005 (ip), vehicle: Klucel (hydroxypropylcellulose) (HPC)",95 % of control
same,T/C,"dose: 4.75 mg/kg/injection, schedule: Q01DX005 (ip), vehicle: Klucel (hydroxypropylcellulose) (HPC)",97 % of control
same,T/C,"dose: 9.5 mg/kg/injection, schedule: Q01DX005 (ip), vehicle: Klucel (hydroxypropylcellulose) (HPC)",88 % of control
CNc1ccc(OC)cc1,T/C,"dose: 100.0 mg/kg/injection, schedule: Q04DX003 (ip), vehicle: other",100 % of control
same,T/C,"dose: 200.0 mg/kg/injection, schedule: Q04DX003 (ip), vehicle: other",90 % of control
same,T/C,"dose: 400.0 mg/kg/injection, schedule: Q04DX003 (ip), vehicle: other",109 % of control
O=C[C@@H](CO)O[C@H](C=O)n1cnc2c(=O)[nH]cnc21,T/C,"dose: 80.0 mg/kg/injection, schedule: Q01DX009 (ip), vehicle: saline",166 % of control and 169 % of control
same,T/C,"dose: 150.0 mg/kg/injection, schedule: Q01DX005 (ip), vehicle: saline",171 % of control
same,T/C,"dose: 160.0 mg/kg/injection, schedule: Q01DX009 (ip), vehicle: saline",187 % of control and 189 % of control and 209 % of control
same,T/C,"dose: 250.0 mg/kg/injection, schedule: Q01DX005 (ip), vehicle: saline",56 % of control
same,T/C,"dose: 320.0 mg/kg/injection, schedule: Q01DX009 (ip), vehicle: saline",100 % of control and 104 % of control
O=C1c2ccccc2C(=O)c2c1cc1cccccc2-1,T/C,"dose: 3.13 mg/kg/injection, schedule: Q01DX005 (ip), vehicle: saline with Tween-80",99 % of control
same,T/C,"dose: 6.25 mg/kg/injection, schedule: Q01DX005 (ip), vehicle: saline with Tween-80",97 % of control
same,T/C,"dose: 12.5 mg/kg/injection, schedule: Q01DX005 (ip), vehicle: saline with Tween-80",90 % of control and 91 % of control
same,T/C,[4],89 % of control
same,T/C,[6],95 % of control
Cc1c([N+](=O)[O-])oc2ccc3ccccc3c12,T/C,[7],113 % of control
same,T/C,[8],94 % of control
same,T/C,[9],107 % of control
CCN(CC)CCCNc1nccc2c(OC)cccc12,T/C,[1],93 % of control
same,T/C,[2],89 % of control
